Reference: patent US20070280982A1, “Antimicrobial compositions comprising hop acid alkali salts and uses thereof” (priority 2006, published 2007)

Experiments:
B. subtilis = experiment: Shelf-life extension (bacteriostatic) assay, broth dilution, FIG. 1 and FIG. 3; format: cell-based, Bacillus subtilis; conditions: glycine alone versus combined with beta acid sodium salts
Experimental: Shelf-life extension assays were performed using the broth dilution method. Final inoculum concentration was […]. Microbial growth was assayed with a spectrophotometer by monitoring the absorption at 600 nm after 2 to 3 days. […] After incubation, colonies were counted.

Bacillus subtilis = conditions: cited from earlier work

## NCC(=O)O [Glycine]
B. subtilis
  Effect on bacterial growth, alone or in combination (FIG. 3): almost no effect on bacterial growth
Bacillus subtilis
  Known activity against Bacillus subtilis: relatively weak activity
